US8648068B2, “Heterocycloalkyl-containing thienopyrimidines for pharmaceutical compositions” (Boehringer Ingelheim International GmbH, priority 2010, dated 2014)
Structures can show the parent of a compound that is named as a salt.

What follows are molecules tested against T1, human Mnk2a (Homo sapiens, UniProt Q9HBH9) (assay: Mnk2a in vitro kinase assay (indirect fluorescence polarization)). Conditions: GST-Mnk2a pre-activated with ERK2, 20 μM ATP, 30 μM substrate peptide; read-out: MNK2 IC50.
T1 construct: made in house; host or cells: E. coli BL21 (vector pGEX-4T1)
T1 sequence (Q9HBH9 whole entry): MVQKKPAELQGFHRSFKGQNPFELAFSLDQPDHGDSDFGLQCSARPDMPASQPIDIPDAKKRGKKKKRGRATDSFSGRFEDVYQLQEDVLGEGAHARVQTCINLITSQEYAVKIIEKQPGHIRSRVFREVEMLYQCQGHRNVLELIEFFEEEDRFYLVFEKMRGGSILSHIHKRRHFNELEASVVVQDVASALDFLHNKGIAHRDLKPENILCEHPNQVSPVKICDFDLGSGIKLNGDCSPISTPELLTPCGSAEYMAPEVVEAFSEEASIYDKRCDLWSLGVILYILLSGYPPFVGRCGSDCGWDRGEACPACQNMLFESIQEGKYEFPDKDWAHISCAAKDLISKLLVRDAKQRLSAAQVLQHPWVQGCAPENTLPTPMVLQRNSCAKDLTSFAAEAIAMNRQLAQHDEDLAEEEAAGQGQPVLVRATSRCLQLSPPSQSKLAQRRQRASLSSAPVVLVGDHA
Assay type: biochemical
How it was run: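 Indirect competitive fluorescence polarization: kinase-generated phospho-product displaces a fluorophore-labelled phospho-peptide from a phospho-specific antibody. Enzyme is N-terminal GST-Mnk2a from E. coli, activated with pre-activated ERK2 and 50 μM ATP; substrate is an amidated 12-mer peptide around eIF4E Ser209.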

SMILES | IC50
Cc1c(C(=O)NCCn2cc[nH]c2=O)sc2ncnc(Nc3ccc(F)cc3OC3CCOCC3)c12 [Example 179] | 166 nM
Cc1c(C(N)=O)sc2ncnc(Nc3ccc(F)cc3OC3CCN(C(=O)CN(C)C)C3)c12 (stereo not shown) [Example 95, 4-{2-[1-(2-Dimethylamino-acetyl)-pyrrolidin-3-yloxy]-4-fluoro-phenylamino}-5-methyl-thieno[2,3-d]pyrimidine-6-carboxylic acid amide] | 460 nM
CCC(C)CNC(=O)c1sc2ncnc(Nc3ccc(F)cc3OC3CCCNC3)c2c1C (stereo not shown) [Example 20] | 67 nM
CCOCCNC(=O)c1sc2ncnc(Nc3ccc(F)cc3OC3CCOCC3)c2c1C [Example 160] | 59 nM
COCC(C)NC(=O)c1sc2ncnc(Nc3ccc(F)cc3OC3CCOCC3)c2c1C (stereo not shown) [Example 163] | 60 nM
Cc1c(C(=O)NCC2(O)CC2)sc2ncnc(Nc3ccc(F)cc3OC3CCOCC3)c12 [Example 178] | 47 nM
Cc1c(C(=O)NCC2CCC(=O)N2)sc2ncnc(Nc3ccc(F)cc3OC3CCOCC3)c12 (stereo not shown) [Example 150] | 70 nM
Cc1c(C(=O)NCCC[S+](C)[O-])sc2ncnc(Nc3cccnc3OC3CCOCC3)c12 (stereo not shown) [Compound 282, 5-Methyl-4-[2-(tetrahydro-pyran-4-yloxy)-pyridin-3-ylamino]-thieno[2,3-d]pyrimidine-6-carboxylic acid (3-methanesulfinyl-propyl)-amide] | 53 nM
Cc1c(C(=O)NCCOCCO)sc2ncnc(Nc3ccc(F)cc3OC3CCOCC3)c12 [Example 210] | 60 nM
Cc1c(C(N)=O)sc2ncnc(Nc3ccc(F)cc3O[C@H]3C[C@@H](CO)N(S(C)(=O)=O)C3)c12 [Example 113, 4-[4-Fluoro-2-((3S,5S)-5-hydroxymethyl-1-methanesulfonyl-pyrrolidin-3-yloxy)-phenylamino]-5-methyl-thieno[2,3-d]pyrimidine-6-carboxylic acid amide] | 420 nM
COC(=O)c1sc2ncnc(Nc3ccc(F)cc3O[C@H]3C[C@H]4COC(=O)N4C3)c2c1C [Example 114, 4-[4-Fluoro-2-((6S,7aS)-3-oxo-tetrahydro-pyrrolo[1,2-d]oxazol-6-yloxy)-phenylamino]-5-methyl-thieno[2,3-d]pyrimidine-6-carboxylic acid methyl ester] | 550 nM
Cc1c(C(N)=O)sc2ncnc(Nc3ccc(F)cc3O[C@@H]3CN[C@H](CO)C3)c12 [Example 115, 4-[4-Fluoro-2-((3S,5S)-5-hydroxymethyl-pyrrolidin-3-yloxy)-phenylamino]-5-methyl-thieno[2,3-d]pyrimidine-6-carboxylic acid amide] | 100 nM
Cc1c(C(=O)NC2CCCNCC2)sc2ncnc(Nc3ccc(F)cc3O[C@H]3CCOC3)c12 (stereo partly drawn) [Example 273, 4-{4-Fluoro-2-[(S)-(tetrahydro-furan-3-yl)oxy]-phenylamino}-5-methyl-thieno[2,3-d]pyrimidine-6-carboxylic acid azepan-4-ylamide trifluoroacetate] | 49 nM
Cc1c(C(=O)NCc2ccc(OC(C)C)cc2)sc2ncnc(Nc3ccc(F)cc3OC3CCCNC3)c12 (stereo not shown) [Example 63] | 43 nM
CC(=O)N1CC[C@@H](Oc2cc(F)ccc2Nc2ncnc3sc(C(N)=O)c(C)c23)C1 [Example 98, 4-[2-((R)-1-Acetyl-pyrrolidin-3-yloxy)-4-fluoro-phenylamino]-5-methyl-thieno[2,3-d]pyrimidine-6-carboxylic acid amide] | 94 nM
Cc1c(C(=O)NC2CCOC2)sc2ncnc(Nc3ccc(F)cc3OC3CCOCC3)c12 (stereo not shown) [Example 202] | 70 nM
Cc1c(C(N)=O)sc2ncnc(Nc3ccc(C#N)cc3O[C@H]3CCCNC3)c12 [Example 67, 4-[4-Cyano-2-((S)-piperidin-3-yloxy)-phenylamino]-5-methyl-thieno[2,3-d]pyrimidine-6-carboxylic acid amide] | 46 nM
CSCCCNC(=O)c1sc2ncnc(Nc3ccc(F)cc3OC3CCOCC3)c2c1C [Example 237] | 36 nM
Cc1c(C(=O)N[C@H]2CC[C@@](C)(O)CC2)sc2ncnc(Nc3ccc(F)cc3OC3CCOCC3)c12 [Example 170] | 125 nM
Cc1c(C(=O)N[C@H]2CC[C@H](CO)CC2)sc2ncnc(Nc3ccc(F)cc3OC3CCOCC3)c12 [Example 129] | 32 nM
Cc1c(C(=O)NCC2CCOCC2)sc2ncnc(Nc3ccc(F)cc3OC3CCCNC3)c12 (stereo not shown) [Example 32] | 55 nM
Cc1c(C(=O)NCC2CCCO2)sc2ncnc(Nc3ccc(F)cc3OC3CCOCC3)c12 (stereo not shown) [Example 217] | 49 nM
COC[C@@H]1CCCN1CCCNC(=O)c1sc2ncnc(Nc3ccc(F)cc3OC3CCOCC3)c2c1C [Example 122] | 48 nM

Continued by falling IC50, values first:

IC50 | SMILES
32 nM | CONC(=O)c1sc2ncnc(Nc3ccc(F)cc3O[C@@H]3CCOC3)c2c1C [Example 102, 4-{4-Fluoro-2-[(R)-(tetrahydro-furan-3-yl)oxy]-phenylamino}-5-methyl-thieno[2,3-d]pyrimidine-6-carboxylic acid methoxy-amide]
31 nM | Cc1c(C(=O)NCc2ccccc2C#N)sc2ncnc(Nc3ccc(F)cc3OC3CCCNC3)c12 (stereo not shown) [Example 41]
30 nM | Cc1c(C(=O)NC2CC2)sc2ncnc(Nc3ccc(F)cc3O[C@H]3CCCNC3)c12 [Example 17]
29 nM | Cc1c(C(=O)NCCCN2CCCC2)sc2ncnc(Nc3ccc(F)cc3OC3CCOCC3)c12 [Example 118]
28 nM | Cc1c(C(=O)NCCCN2CC[C@H](O)C2)sc2ncnc(Nc3ccc(F)cc3OC3CCOCC3)c12 [Example 251]
28 nM | Cc1c(C(N)=O)sc2ncnc(Nc3ccc(F)cc3O[C@@H]3CCCN(Cc4nccs4)C3)c12 [Example 78]
27 nM | C#CCNC(=O)c1sc2ncnc(Nc3ccc(F)cc3OC3CCOCC3)c2c1C [Example 229]
25 nM | Cc1c(C(=O)NCCCN2CCCC2)sc2ncnc(Nc3ccc(F)cc3O[C@@H]3CCOC3)c12 [Example 106]
22 nM | Cc1c(C(=O)NCCCN(C)C)sc2ncnc(Nc3ccc(F)cc3O[C@@H]3CCCOC3)c12 [Example 88, 4-{4-Fluoro-2-[(R)-(tetrahydro-pyran-3-yl)oxy]-phenylamino}-5-methyl-thieno[2,3-d]pyrimidine-6-carboxylic acid (3-dimethylamino-propyl)-amide]
21 nM | Cc1c(C(=O)Nc2ccn(C)n2)sc2ncnc(Nc3ccc(F)cc3O[C@H]3CCCNC3)c12 [Example 64, 4-[4-Fluoro-2-((S)-piperidin-3-yloxy)-phenylamino]-5-methyl-thieno[2,3-d]pyrimidine-6-carboxylic acid (1-methyl-1H-pyrazol-3-yl)-amide]
18 nM | Cc1c(C(=O)N[C@H]2CCNC[C@@H]2O)sc2ncnc(Nc3ccc(F)cc3OC3CCOCC3)c12 [Example 246]
17 nM | Cc1c(C(=O)NCC2CNCCO2)sc2ncnc(Nc3ccc(F)cc3OC3CCOCC3)c12 (stereo not shown) [Example 127]
15 nM | Cc1c(C(=O)N[C@H](C)C(=O)O)sc2ncnc(Nc3ccc(F)cc3OC3CCOCC3)c12 [Example 147]
6 nM | Cc1c(C(N)=O)sc2ncnc(Nc3ccc(F)cc3O[C@@H]3CCN(S(C)(=O)=O)C3)c12 [Example 99, 4-[4-Fluoro-2-((R)-1-methanesulfonyl-pyrrolidin-3-yloxy)-phenylamino]-5-methyl-thieno[2,3-d]pyrimidine-6-carboxylic acid amide]
